Assay results from paper PMC10931745 (International Journal of Molecular Sciences, 2024).

Tests used:
[1] = DPPH radical scavenging assay; type: biochemical
Method: The radical scavenging properties of the complexes on the 1,1-diphenyl-2-picrylhydrazil (DPPH) radical were evaluated as previously described.
All the complexes were used at different concentrations (10, 25, 50, 100, and 200 µg/mL) and the DPPH radical scavenging activity, measured at 517 nm using a microplate reader, was expressed as inhibition percentages (%IDPPH) compared to the initial concentration of DPPH (control) according to the following expression:(2) IDPPH (%)=ABSCTRL−ABSsample/ABSCTRL∗100 where ABSCTRL and ABSsample are the absorbance at 517 nm in the control and in the presence of samples, respectively.
The obtained IDPPH percentages allowed us to calculate the IC50 values using Graph-Pad Prism 9 software (GraphPad Inc., San Diego, CA, USA). Trolox was employed as a positive control, while caffeine and theophylline were reference compounds.

[2] = test system: ROS production in BALB/3T3 fibroblasts; assay: Intracellular ROS detection with DCFH2-DA; type: cell-based, murine; details: 25 µM, 24 h pre-treatment
Method: In vitro detection of intracellular ROS on fibroblasts BALB/3T3 using DCFH2-DA The assay to evaluate the in vitro antioxidant activity was carried out using the murine BALB/3T3 fibroblasts that were plated in a white 96 MW and then treated with the complexes at a concentration of 25 µM for 24 h. Menadione (25 µM) was then added for 15 min to induce ROS production. After treatment, the cells were washed with PBS and treated with 25 μM 2′-7′-dichlorofluorescein diacetate (DCFH2-DA, Sigma-Aldrich, St. Louis, MO, USA), and then they were incubated for 40 min at 37 °C and 5% CO2. The probe DCFH2-DA penetrates cells where it is […] into a non-fluorescent form (DCFH2) by endogenous esterases. In the presence of intracellular ROS, non-fluorescent H2DCF is oxidized to the fluorescent 2′,7′-dichlorofluorescein (DCF). Then, the cells were washed with PBS and the fluorescence was detected using a multiplate reader (λex = 485 nm, λem = 535 nm). Based on the obtained fluorescence values, the ROS production inhibition % (IROS) vs. menadione was calculated using the following formula:(1) IROS vs. Menadione (%)=FMen−FSample/FMen∗100 where FMen represents the mean fluorescence obtained after treatment with menadione alone and Fsample represents the mean fluorescence obtained after the co-treatment with the complexes and menadione.

MCF-7 = assay: MTT cell viability assay; type: cell-based, human; details: 72 h
Method: (§1) The cell lines used were purchased from American Type Culture Collection (ATCC, Manassas, VA, USA). Human breast cancer cells MCF-7 and MDA-MB-231, human mammary epithelial cell line MCF-10A, and mouse BALB/3T3 embryonic fibroblasts were cultured as already described by some of us. The murine macrophage cell line RAW 264.7 was maintained in Dulbecco’s Modified Eagle’s Medium (DMEM) high glucose (4.5 g/L) supplemented with 10% Fetal Bovine Serum (FBS), 1% L-glutamine, and 100 units/mL of penicillin/streptomycin. The cell cultures were maintained at the temperature of 37 °C in a humidified atmosphere containing 5% CO2.
(§2) The 3-(4,5-dimethylthiazol-2-yl)-2,5-diphenyl-2H-tetrazolium bromide (MTT) assay (Sigma Aldrich (St. Louis, MO, USA)) was carried out to study the in vitro anticancer activities of the complexes, following the previously reported protocol. The cells were incubated for 72 h with different concentrations of the tested compounds (0.1, 1, 10, 25, 50, 100, and 500 µM) and the IC50 values were calculated from the percent (%) of control using the software GraphPad Prism 9 (GraphPad Software, La Jolla, CA, USA).

MDA-MB-231 = assay: MTT cell viability assay; type: cell-based, human; details: 72 h
Method: as §1, §2

[3] = ABTS radical scavenging assay; type: biochemical
Method: The radical scavenging properties of the complexes on a 2,20-azino-bis(3-ethylbenzothiazoline-6-sulfonate) radical cation (ABTS^+) were evaluated as previously described.
All the complexes were used at different concentrations (5, 10, 25, 50, and 100 µg/mL) and the ABTS radical scavenging activity, measured at 730 nm using a microplate reader, was expressed as inhibition percentages (%IABTS) compared tothe control, according to the following expression:(3) IABTS (%)=ABSCTRL−ABSsample/ABSCTRL∗100 where ABSCTRL and ABSsample are the absorbance at 730 nm in the control and in the presence of samples, respectively.
IC50 values were calculated from the %IABTS using GraphPad Prism 9 software (GraphPad Inc., San Diego, CA, USA). Trolox was employed as a positive control, while caffeine and theophylline were reference compounds.

[4] = test system: Escherichia coli (ATCC 25922); assay: MIC/MBC broth dilution; type: cell-based
Method: (§3) The bacterial strains used for MIC and MBC value determinations expressed as µg/mL by the broth dilution method, according to CLSI guidelines, were the following:
(§4) -4 Gram-negative: Escherichia coli (ATCC® 25922^TM) and Klebsiella pneumoniae (ATCC® 13883^TM);
(§5) Increasing concentrations of the complexes (50, 70, 100, 150, and 200 µg/mL) were incubated with bacteria plated in 96-well microplates at 37 °C overnight as already reported, and then bacterial growth was checked at a wavelength of 600 nm using a Multiskan spectrophotometer (model Multiskan Ex Microplate; Thermo Scientific, Nyon, Switzerland). MIC or MBC values were obtained by comparing cell density with a positive control (bacterial cells grown in LB medium were added with only the vehicle, DMSO). The results were representative of three independent experiments performed in triplicate. Ampicillin, Gentamicin, and Cephalosporin (Sigma Aldrich A9393) were used as the control for strain sensitivity.

[5] = test system: Klebsiella pneumoniae (ATCC 13883); assay: MIC/MBC broth dilution; type: cell-based
Method: as §3, §4, §5

[6] = test system: Pseudomonas aeruginosa (ATCC 15442); assay: MIC/MBC broth dilution; type: cell-based
Method: as §3
as §5, with “The results were representative of three independent experiments performed in triplicate.” left out

[7] = test system: Salmonella typhimurium (ATCC 14028); assay: MIC/MBC broth dilution; type: cell-based
Method: as §3
as §5, with “The results were representative of three independent experiments performed in triplicate.” left out

[8] = test system: Staphylococcus epidermidis (ATCC 14990); assay: MIC/MBC broth dilution; type: cell-based
Method: as §3
(§6) -3 Gram-positive: Enterococcus faecalis (ATCC® 19433^TM), Staphylococcus aureus (ATCC® 23235^TM), and Staphylococcus epidermidis (ATCC® 14990™).
as §5

[9] = test system: Staphylococcus aureus (ATCC 23235); assay: MIC/MBC broth dilution; type: cell-based
Method: as §3, §6, §5

[10] = test system: Enterococcus faecalis (ATCC 19433); assay: MIC/MBC broth dilution; type: cell-based
Method: as §3, §6, §5

[11] = test system: human mammary epithelial cell line MCF-10A; assay: MTT assay, toxicity towards normal cells; type: cell-based; details: 72 h
Method: as §1, §2

[12] = test system: NF-κB localization in RAW 264.7 macrophages; assay: Immunofluorescence, NF-κB localization; type: cell-based, murine; details: 25 µM, co-treated with LPS 1 µg/mL
Method: (§7) After a PBS wash, cells were fixed using cold methanol (15 min at −20 °C) and incubated overnight at 4 °C with the primary antibodies raised against NF-κB, iNOS, TNF-α, and COX-1 and 2 (Santa Cruz Biotechnology Inc., Santa Cruz, CA, USA) diluted in BSA 2%, as previously described. […] DAPI (Sigma Aldrich, Milan, Italy) 0.2 µg/mL was added for 10 min for nuclei counterstaining. A fluorescence microscope (Leica DM 6000) was used for visualizing images, and LAS-X software 3.5.7.23225 was used for acquisition and processing.

[13] = test system: COX-2 expression in RAW 264.7 macrophages; assay: Immunofluorescence, COX-2 expression; type: cell-based, murine; details: 25 µM, co-treated with LPS 1 µg/mL
Method: as §7

[14] = test system: COX-1 expression in RAW 264.7 macrophages; assay: Immunofluorescence, COX-1 expression; type: cell-based, murine; details: 25 µM, co-treated with LPS 1 µg/mL
Method: as §7

[15] = test system: NO production in LPS-stimulated RAW 264.7 macrophages; assay: Griess assay, NO production; type: cell-based, murine; details: 25 µM, LPS 1 µg/mL, 24 h
Method: The Griess assay was performed using RAW 264.7 murine macrophages to study the anti-inflammatory activity in terms of NO production. RAW 264.7 cells were plated in the 48 multi-wells and, after 24 h, treated with the tested molecules (25 µM) and the lipopolysaccharide (LPS, Sigma Aldrich, Milan, Italy) at a final concentration of 1 µg/mL. LPS is able to induce inflammation by stimulating NO production in immune system cells such as macrophages. After 24 h, the cell medium Griess reagent (Sigma Aldrich, Milan, Italy) was mixed in with a ratio of 1:1. The Griess reagent allowed for the quantification of NO released by macrophages in the treatment medium. The mixture was left for 30 min under agitation and, subsequently, the absorbance at 540 nm was measured using a multiplate reader. The obtained absorbance allowed us to calculate the NO production % compared to the absorbance obtained for the positive control, in which the cells were treated with LPS.

[16] = test system: iNOS expression in RAW 264.7 macrophages; assay: Immunofluorescence, iNOS expression; type: cell-based, murine; details: 25 µM, co-treated with LPS 1 µg/mL
Method: as §7

| Molecule | IC50 [1] | ROS level reduction vs. menadione [2] | IC50 (MCF-7) | IC50 (MDA-MB-231) | IC50 [3] | M.I.C. E. coli [4] | M.I.C. K. pneumoniae [5] | M.I.C. P. aeruginosa [6] | M.I.C. S. typhimurium [7] | M.I.C. S. epidermidis [8] | M.I.C. S. aureus [9] | M.I.C. E. faecalis [10] | IC50 [11] | M.B.C. E. coli [4] | M.B.C. K. pneumoniae [5] | M.B.C. P. aeruginosa [6] | NF-κB intracellular localization [12] | Reduction in COX-2 expression (fluorescence) [13] | COX-1 protein expression level [14] | Reduction in NO production [15] | also measured |
| --- | --- | --- | --- | --- | --- | --- | --- | --- | --- | --- | --- | --- | --- | --- | --- | --- | --- | --- | --- | --- | --- |
| 1,3,7-Trimethylxanthin-9-[(2-hydroxy-2-phenyl)ethyl-8-ylidene]Au(I) Acetate [AuL1OAc] | > 500 µM | ~54% | > 100 µM | > 100 µM | > 500 µM | >200 µg/mL | >200 µg/mL | >200 µg/mL | >200 µg/mL | >200 µg/mL | >200 µg/mL | >200 µg/mL | > 100 µM |  |  |  |  |  |  |  |  |
| CC(=O)[O][Ag-][c]1n(C)c2c(c(=O)n(C)c(=O)n2C)[n+]1CC(O)c1ccccc1 (racemic) [AgL1OAc, 1,3,7-Trimethylxanthin-9-[(2-hydroxy-2-phenyl)ethyl-8-ylidene]Ag(I) Acetate] | > 500 µM | about 61% | 39.6 ± 0.8 µM | 32.3 ± 0.9 µM | 149.2 ± 0.7 µM |  | 125 µg/mL | 125 µg/mL | 150 µg/mL | 125 µg/mL | 125 µg/mL | 150 µg/mL | > 100 µM | > 150 µg/mL | > 150 µg/mL | > 150 µg/mL |  |  |  |  | M.B.C. S. typhimurium [7]: > 200 µg/mL; M.B.C. S. epidermidis [8]: > 150 µg/mL; M.B.C. S. aureus [9]: > 150 µg/mL; M.B.C. E. faecalis [10]: > 200 µg/mL |
| CC(=O)[O][Ag-][c]1n(C)c2c(c(=O)n(C)c(=O)n2C)[n+]1CCO [AgL3OAc, 1,3,7-Trimethylxanthin-9-[(2-hydroxy)ethyl)-8-ylidene]Ag(I) Acetate] | > 500 µM |  | > 100 µM | > 100 µM | > 500 µM |  | 150 µg/mL | 150 µg/mL | 150 µg/mL | 100 µg/mL | 125 µg/mL | 150 µg/mL | > 100 µM | > 200 µg/mL | > 200 µg/mL | > 200 µg/mL | mostly cytoplasmic | about 60% | no difference in protein expression level | about 14.35% | M.B.C. S. typhimurium [7]: > 200 µg/mL; iNOS expression level [16]: net reduction in iNOS expression; M.B.C. S. epidermidis [8]: > 125 µg/mL; M.B.C. S. aureus [9]: > 200 µg/mL; M.B.C. E. faecalis [10]: > 200 µg/mL |
| Cn1c(=O)c2c(n(C)[c]([Au-][I])[n+]2CCO)n(C)c1=O [AuL3] | > 500 µM |  | > 100 µM | > 100 µM | > 500 µM | >200 µg/mL | >200 µg/mL | >200 µg/mL | >200 µg/mL | >200 µg/mL | >200 µg/mL | >200 µg/mL | > 100 µM |  |  |  | mostly cytoplasmic | about 40% | no difference in protein expression level | ~14.12% |  |
| COc1ccc2c(c1)c(CC(=O)O)c(C)n2C(=O)c1ccc(Cl)cc1 [indomethacin, reference compound] |  |  |  |  |  |  |  |  |  |  |  |  |  |  |  |  | higher cytoplasmic localization of NF-κB | about 30% | no difference in protein expression level | about 11.23% | iNOS expression level [16]: lower, reaching those obtained with the CTRL cells |
